Experimental data published in patent US20110207689A1, “THE TREATMENT OF HEARING LOSS” (Auckland UniServices Limited, priority 2008, published 2011).
“Also recorded” adds a separate entry of the source.

Legend:
Format in all cases: in vivo, Wistar rats
[1] = test system: rats exposed to 8-12 kHz band noise for 24 hours at 110 dB SPL; experiment: ABR threshold recovery after prolonged (24 hours) noise exposure, systemic ADAC (Experiment 1); conditions: for recovery of ABR thresholds: 24 h noise 110 dB SPL
Experimental: In Experiments 1 and 2, Wistar rats were exposed to noise (8-12 kHz, 110 dB SPL for 2-24 hours). ADAC was then administered to the Wistar rats at 100 μg/kg/day. The ADAC was either administered as a single injection 6 hours after noise exposure, or as a single injection 24 hours after noise exposure, or as multiple injections, with the first injection of the multiple injections being administered 6 hours after noise exposure.
(§1) Hearing thresholds were assessed using auditory brainstem responses (ABRs) and the cellular damage was evaluated by quantitative histology (hair cell loss). ABR represents the activity of the auditory nerve and the central auditory pathways (brainstem/mid-brain regions) responding to the sound (clicks or pure tones). Nitrotyrosine marker was used for the immunohistochemical assessment of free radical damage.
Adenosine amine congener (ADAC) was obtained from Dr Ken Jacobson (NIH, Bethesda, USA). ADAC ([…]) was dissolved first in 100 μL of 1N HCl and then in 50 ml of 0.1 M PBS (pH 7.4), making a 50 μg/mL stock solution. This solution was aliquoted at 1 mL in eppendorf tubes, and stored at −20° C. for later use. When required, the ADAC aliquots were heated in a 37° C. water bath for 30 minutes before administration. ADAC injection dose was […] given intraperitoneally, 200 μl/100 g body weight.
The rats were exposed to 8-12 kHz band noise presented for 24 hours at 110 dB SPL. This was done in a custom built acoustic chamber (Shelburg Acoustics, Sydney, Australia) with internal speakers and external controls (sound generator and frequency selector). Sound intensity inside the chamber was tested using a calibrated Rion NL-40 sound level meter to ensure minimal deviations of sound intensity (110±1 dB SPL). Up to 4 rats were placed in the chamber in a standard rat cage. They were introduced to the sound chamber at 1 hour intervals so that the timing of subsequent ABRs could be kept consistent for all rats.
ABR represents the activity of the auditory nerve and the central auditory pathways (brainstem/mid-brain regions) responding to the sound (clicks or pure tones). ABRs were obtained by placing fine platinum electrodes subdermally at the mastoid region of the ear of interest (active electrode), scalp vertex (reference) and mastoid region of the opposite ear (ground electrode). A series of auditory clicks or pure tones (4-28 kHz) presented at varying intensity and thresholds generate electrical activity reflecting differing levels of auditory processing. The sound threshold of the ABR complex (waves I-IV) were determined by progressively attenuating the sound intensity until the waveform can no longer be observed.
The acoustic stimuli for ABR were produced and the responses recorded using a Tucker-Davis Technologies auditory physiology workstation (Alachua, Fla., USA).
All ABR measurements were performed in a sound attenuator chamber (Shelburg Acoustics, Sydney, Australia). Rats were anaesthetised with the mixture of Ketamine (75 mg/kg) and Xylazine (10 mg/kg) intraperitoneally, and then placed onto a heating pad, to maintain body temperature at 37° C. ABR potentials were evoked with digitally produced 5 ms tone pips (0.5 ms rise-fall time) at frequencies between 4 and 28 kHz in half-octave steps. Sound pressure level (SPL) was raised in 5 dB steps starting from 10 dB below threshold level to 90 dB SPL. Responses were averaged at each sound level (1024 repeats with stimulus polarity alternated), and response waveforms were discarded when peak-to-peak amplitude exceeded 15 μV. The ABR threshold was defined as the lowest intensity (to the nearest 5 dB) at which a response could be visually detected above the noise floor.
ABR thresholds were measured before and after noise exposure, and after ADAC/vehicle treatment. Post-noise ABR recordings were obtained 1 hour before the rats received their first ADAC or vehicle injection. […]

[2] = test system: nitrotyrosine immunoreactivity in the organ of Corti; experiment: Nitrotyrosine (NT) immunohistochemistry of cochlea after 24 hours noise (Experiment 1); conditions: ADAC treated cochlea versus vehicle
Experimental: as §1
After overnight fixation in 4% PFA, rat cochleae were decalcified in a 5% EDTA solution for 7 days and cryoprotected in a 30% sucrose (in 0.1 M PB) solution overnight. The cochleae were snap-frozen in N-pentane, and stored at −80° C. until further processing. Frozen cochlear tissues were cryosectioned at 30 μm and transferred into 24-well plates (Nalge Nunc Int., Naperville, USA) containing the sterile 0.1M PBS, and permeabilised with 1% Triton X-100 for 1 hr. Non-specific binding sites were blocked with 10% normal goat serum (Vector Laboratories, Burlingame, Calif.). […] Tissue sections were incubated with the secondary antibody for 2 hours in the dark, then rinsed several times in PBS, mounted in fluorescence medium (DAKO Corporation, Carpinteria, Calif., USA) and screened for NT specific immunofluorescence using a confocal microscope (TCS SP2, Leica Leisertechnik GmbH, Heidelberg, Germany). […]

[3] = test system: organ of Corti hair cells; experiment: Hair cell counts after acute (2 hours) noise exposure (Experiment 2); conditions: 2 h noise 110 dB SPL; five ADAC injections; vehicle 23-34%
Experimental: After the overnight fixation, the cochlea was decapsulated in 0.1 M PBS, to isolate the organ of Corti. The organ of Corti was removed with fine forceps, and separated into the apical, middle and basal turns. Wholemount tissues of the organ of Corti were placed into a 24-well plate, and then permeabilised with 1% Trition-X in 0.1 M PBS for 1 hour. 1% Alexa Fluor 488 phalloidin (Invitrogen) dissolved in 0.1 M PBS was used to stain the hair cells and their stereocilia. Tissues were incubated in phalloidin for 40 minutes, washed with 0.1 M PBS 3×10 min and mounted onto glass slides using CitiFlour. The slides were visualised using a Zeiss epi-fluorescence microscope and processed with Axiovision v3.1 software, using dark field filter and 100×, 200×, and 400× magnification. Non-overlapping images were taken for the entire length of the cochlea, and the number of missing outer hair cells was counted for each turn and presented as a percentage of total number of hair cells.
The percentage of total number of hair cells was determined as for Experiment 1.
The outer and inner hair cells were counted in Alexa 488 phalloidin-labelled surface preparation of the organ of Corti in the basal, middle and apical turns and the percentage of missing hair cells was calculated for each turn.

NCCNC(=O)Cc1ccc(NC(=O)Cc2ccc(Nc3ncnc4c3ncn4[C@@H]3O[C@H](CO)[C@@H](O)[C@H]3O)cc2)cc1 [ADAC, adenosine amine congener]
effect on threshold recovery ([1]; ADAC administration 24 hours after noise exposure, FIG. 3): less pronounced
recovery of ABR thresholds at all pure tone frequencies ([1]; chronic treatment (5 days, five injections every 24 hours commencing 6 hours post-noise), 100 μg/kg i.p.): 22-28 dB
highest recovery of ABR thresholds (mean ± SEM) ([1]; group that received multiple injections of ADAC (FIGS. 4 and 5), follows sentence on auditory clicks): 29 dB
best recovery of hearing thresholds ([1]; prolonged ADAC treatment (5 injections), FIG. 4): < 25 dB
lowest recovery of ABR thresholds (mean ± SEM) ([1]; single ADAC injection 24 hours after noise exposure (FIGS. 3 and 5), follows sentence on auditory clicks): 8±2 dB
recovery of ABR thresholds ([1]; single injection ADAC 100 μg/kg i.p. 24 hours after noise exposure): 5-12 dB
recovery of ABR thresholds ([1]; single injection ADAC 100 μg/kg i.p., early treatment 6 hours after noise): 17-26 dB
threshold recovery versus control group ([1]; single injection of ADAC 6 hours after noise exposure, pure tones and auditory clicks, p<0.05, p<0.01): statistically significant difference between the groups in the level of recovery
NT immunostaining in the cochlea [2]: very little NT immunostaining; also recorded: reduced in the ADAC treated cochlea to a background level
hair cell loss, basal cochlear turn (average) [3]: 9%
hair cell loss, middle cochlear turn (average) [3]: 7%
